Results from ChEMBL document CHEMBL1821610 (Bioorg Med Chem Lett, 2011).
Converted amounts (≈) assume the structure as drawn. Values belong to the compound of their own block, whether it stands above or below them.

Assays:
[1] = Dissociation constant, pKa of the compound; format: physicochemical
[2] = Partition coefficient, log P of the compound; format: physicochemical; conditions: octanol/water
Mus musculus = experiment: Cmax in CD1 mouse at 10 mg/kg, po; format: ADME, organism-based; parameters: dose 10 mg/kg, route oral; conditions: in vivo
[3] = Chromatographic hydrophobicity index of the compound at pH 10.5 by rapid gradient HPLC analysis; format: physicochemical
[4] = Clearance in Beagle dog at 0.05 mg/kg, iv; format: ADME, organism-based, Canis lupus familiaris; parameters: dose 0.05 mg/kg, route intravenous; conditions: in vivo
[5] = Half life in CD1 mouse at 0.2 mg/kg, iv; format: ADME, organism-based; parameters: dose 0.2 mg/kg, route intravenous; conditions: in vivo
[6] = Solubility of the compound in PBS at pH 7.4; format: physicochemical
Canis familiaris = experiment: Cmax in Beagle dog at 2 mg/kg, po; format: ADME, organism-based, Canis lupus familiaris; parameters: dose 2 mg/kg, route oral; conditions: in vivo
[7] = Oral bioavailability in CD1 mouse at 10 mg/kg; format: ADME, organism-based; conditions: in vivo
[8] = Solubility of the compound in simulated gastric fluid at pH 1.2; format: physicochemical; conditions: simulated gi fluid
[9] = Volume of distribution in Beagle dog at 0.05 mg/kg, iv; format: ADME, organism-based, Canis lupus familiaris; parameters: dose 0.05 mg/kg, route intravenous; conditions: in vivo
[10] = Oral bioavailability in Beagle dog at 2 mg/kg; format: ADME, organism-based, Canis lupus familiaris; conditions: in vivo
[11] = Chromatographic hydrophobicity index of the compound at pH 7.4 by rapid gradient HPLC analysis; format: physicochemical
Plasmodium falciparum [12] = experiment: Antimalarial activity against Plasmodium falciparum infected in A-positive human erythrocytes assessed as [3H]-hypoxanthine uptake after 24 hrs by liquid scintillation counter; format: functional, organism-based
[13] = Chromatographic hydrophobicity index of the compound at pH 2 by rapid gradient HPLC analysis; format: physicochemical
[14] = Solubility of the compound in fasted state simulated intestinal fluid at pH 6.8; format: physicochemical
[15] = Solubility of the compound in fed state simulated intestinal fluid at pH 5.0; format: physicochemical
[16] = Half life in Beagle dog at 0.05 mg/kg, iv; format: ADME, organism-based, Canis lupus familiaris; parameters: dose 0.05 mg/kg, route intravenous; conditions: in vivo
[17] = Volume of distribution in CD1 mouse at 0.2 mg/kg, iv; format: ADME, organism-based; parameters: dose 0.2 mg/kg, route intravenous; conditions: in vivo
Plasmodium falciparum [18] = experiment: Antimalarial activity against Plasmodium falciparum in po dosed HM-IL2R gamma null mouse assessed as reduction in parasitemia administered once a day for 4 days; format: functional; conditions: 96 h
[19] = Clearance in CD1 mouse at 0.2 mg/kg, iv; format: ADME, organism-based; parameters: dose 0.2 mg/kg, route intravenous; conditions: in vivo

pKa [1]: 9.73
logP [2]: 4.4
Cmax (Mus musculus): 1100 ng/mL
CHI [3]: 2.2
clearance [4]: 0.8 mL/min/kg
half-life [5]: 3.8 h
solubility [6]: < 100 µg/mL
Cmax (Canis familiaris): 300 ng/mL
bioavailability [7]: 50%
solubility [8]: 372 µg/mL (≈ 874 µM)
Vd [9]: 2.8 L/kg
bioavailability [10]: 16%
CHI [11]: 2.42
CHI [13]: 2.43
solubility [14]: 690 µg/mL (≈ 1620 µM)
solubility [15]: 2340 µg/mL (≈ 5500 µM)
half-life [16]: 42 h
Vd [17]: 1 L/kg
clearance [19]: 3 mL/min/kg
Compound: Cc1[nH]c(CO)c(-c2ccc(Oc3ccc(OC(F)(F)F)cc3)cc2)c(=O)c1Cl
IC50 (Plasmodium falciparum [12]): 2 nM
ED50 (Plasmodium falciparum [18]): 0.6 mg/kg

Compound: Cc1[nH]c(CN(C)C)c(Cl)c(=O)c1-c1ccc(Oc2ccc(OC(F)(F)F)cc2)cc1
IC50 (Plasmodium falciparum [12]): > 250 nM

Compound: Cc1[nH]c(CO)c(Cl)c(=O)c1-c1ccc(Oc2ccc(OC(F)(F)F)cc2)cc1
IC50 (Plasmodium falciparum [12]): 130 nM

Compound: Cc1[nH]c(CO)c(Cl)c(=O)c1-c1ccc(Oc2cccc(C(F)(F)F)c2)cc1
IC50 (Plasmodium falciparum [12]): 120 nM

Compound: Cc1[nH]c(CN2CCCC2)c(Cl)c(=O)c1-c1ccc(Oc2ccc(OC(F)(F)F)cc2)cc1
IC50 (Plasmodium falciparum [12]): > 250 nM

Compound: Cc1[nH]c(CN2CCOCC2)c(Cl)c(=O)c1-c1ccc(Oc2ccc(OC(F)(F)F)cc2)cc1
IC50 (Plasmodium falciparum [12]): > 250 nM

Compound: Cc1[nH]c(CO)c(-c2ccc(Oc3cccc(C(F)(F)F)c3)cc2)c(=O)c1Cl
IC50 (Plasmodium falciparum [12]): 3 nM

Compound: Cc1[nH]c(CN(C)C)c(-c2ccc(Oc3ccc(OC(F)(F)F)cc3)cc2)c(=O)c1Cl
IC50 (Plasmodium falciparum [12]): > 250 nM

Compound: Cc1[nH]c(CN2CCCC2)c(-c2ccc(Oc3ccc(OC(F)(F)F)cc3)cc2)c(=O)c1Cl
IC50 (Plasmodium falciparum [12]): > 250 nM

Compound: Cc1[nH]c(CN2CCOCC2)c(-c2ccc(Oc3ccc(OC(F)(F)F)cc3)cc2)c(=O)c1Cl
IC50 (Plasmodium falciparum [12]): > 250 nM

Compound: Cc1[nH]c(C(=O)O)c(-c2ccc(Oc3ccc(OC(F)(F)F)cc3)cc2)c(=O)c1Cl
IC50 (Plasmodium falciparum [12]): > 250 nM

Compound: Cc1[nH]c(C(=O)N(C)C)c(-c2ccc(Oc3ccc(OC(F)(F)F)cc3)cc2)c(=O)c1Cl
IC50 (Plasmodium falciparum [12]): > 250 nM

pKa [1]: 10.1
logP [2]: 4.8
Cmax (Mus musculus): 900 ng/mL
CHI [3]: 2.77
clearance [4]: 0.2 mL/min/kg
half-life [5]: 24.1 h
solubility [6]: < 100 µg/mL
Cmax (Canis familiaris): 30 ng/mL
bioavailability [7]: 20%
solubility [8]: 287 µg/mL (≈ 700 µM)
Vd [9]: 2.9 L/kg
bioavailability [10]: 4.4%
CHI [11]: 2.79
CHI [13]: 2.75
solubility [14]: 500 µg/mL (≈ 1220 µM)
solubility [15]: 700 µg/mL (≈ 1710 µM)
half-life [16]: 143 h
Vd [17]: 1.2 L/kg
clearance [19]: 0.6 mL/min/kg
Compound: Cc1[nH]c(C)c(-c2ccc(Oc3ccc(OC(F)(F)F)cc3)cc2)c(=O)c1Cl
IC50 (Plasmodium falciparum [12]): 7 nM

Compound: Cc1[nH]c(C)c(-c2ccc(Oc3cccc(C(F)(F)F)c3)cc2)c(=O)c1Cl
IC50 (Plasmodium falciparum [12]): 3 nM
